The results in this text go back to patent US20240166612A1, “ARYLTHIOETHER ACETAMIDE AND RELATED COMPOUNDS AND THEIR USE IN TREATING MEDICAL CONDITIONS” (X-Biotix Therapeutics, Inc., priority 2021, published 2024).

Broadly, the MIC is the smallest concentration in the dilution series that meets the test's criterion for growth inhibition. For orientation: IC50 means the midpoint of a concentration-inhibition curve.

Values after ≈ are worked out from the molar mass of the structure shown.

Test [1] has as its system Wild-type P. aeruginosa PAO1. The experiment in a line: Broth microdilution MIC, wild-type P. aeruginosa PAO1. Type of test: cell-based. To be noted: Pseudomonas aeruginosa; wild-type P. aeruginosa PAO1, 37° C., 18 h; read-out: PAO1 WT MIC. A general note: Broth dilution looks for growth in wells or tubes with falling amounts of substance.
The subject of test [2] is E. coli JW0452-3 (BW25113 JacrA::kan). The experiment in a line: Broth microdilution MIC, E. coli JW0452-3. Type of test: cell-based. Particulars: Escherichia coli, BW25113, 18 h, read-out: E. coli KO MIC. The protocol: Exemplary compounds from the above Examples were tested to determine their minimum inhibitory concentration (MIC) for exemplary strains of Escherichia and Pseudomonas bacteria using broth microdilution methods. Assay procedures and results are described below.
Broth microdilution assays were conducted according to Clinical and Laboratory Standards Institute guidelines (CLSI, M07-A^11: Clinical and Laboratory Standards Institute. Methods for Dilution Antimicrobial Susceptibility Tests for Bacteria that Grow Aerobically; Approved Standard-11th Edition. Wayne, PA: CLSI, 2018). Briefly, bacterial suspensions were adjusted to a density equivalent to a 0.5 McFarland standard and diluted in sterile, cation-adjusted Mueller-Hinton broth (Beckton Dickinson) to yield a final inoculum between 2×10^5 and 8×10^5 colony-forming units (CFU)/mL. An inoculum volume of 98 μL was added to wells containing 2 μL of 2-fold serial dilutions of drug (prepared in DMSO). All inoculated microdilution trays were incubated in ambient air at 37° C. for 18 h. […] Performance of the assay was monitored by the use of laboratory quality-control strains (S. aureus ATCC 29213 and P. aeruginosa ATCC 27853) and levofloxacin, a compound with a defined MIC spectrum, in accordance with CLSI guidelines (CLSI, M100Ed29: Clinical and Laboratory Standards Institute. Performance Standards for Antimicrobial Susceptibility Testing, 29th Edition. Wayne, PA: CLSI, 2018).
Multiple enterobacteriaceae strains were tested, including both wild-type strains and multi-drug resistance pump deficient mutants. Specific strains tested included the following: • Wild-type P. aeruginosa PAO1, • P. aeruginosa PAO1 ΔmexABoprM—Disabled multi-drug efflux system Δ(MexAB-OprM), • P. aeruginosa PAO397—PAO1Δ(mexAB-oprM) Δ(mexCD-oprJ) Δ(mexEF-oprN) Δ(mexJK) Δ(mexXY) ΔopmH, • P. aeruginosa LESB58—Clinical isolate; colistin-resistant, isolated in the United Kingdom in 1988 from a patient with cystic fibrosis • E. coli JW0452-3 (BW25113 JacrA::kan)—Disabled multi-drug efflux system (AcrAB-TolC). […]

Test [3] concerns P. aeruginosa PAO397. As to the kind of experiment: Broth microdilution MIC, P. aeruginosa PAO397. The class given is cell-based. To be noted: Pseudomonas aeruginosa, PAO397, 18 h, read-out: PAO397 KO MIC.
The target of test [4] is T1, recombinant LpxA enzyme (P. aeruginosa) (Pseudomonas aeruginosa, UniProt Q9X6P4).
T1 sequence (Q9X6P4 1-258): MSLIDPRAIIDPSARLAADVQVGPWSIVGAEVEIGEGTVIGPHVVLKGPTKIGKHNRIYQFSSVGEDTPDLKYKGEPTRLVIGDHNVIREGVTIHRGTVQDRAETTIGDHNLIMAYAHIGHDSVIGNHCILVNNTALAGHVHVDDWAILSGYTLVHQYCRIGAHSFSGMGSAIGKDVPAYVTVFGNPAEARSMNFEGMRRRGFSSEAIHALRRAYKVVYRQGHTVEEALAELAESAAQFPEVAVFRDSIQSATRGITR
As to the kind of experiment: LpxA in vitro substrate acylation assay with RapidFire MS analysis (P. aeruginosa). The class given is biochemical. Particulars: P. aeruginosa enzyme 0.5 nM, PaACP-C10, 30 min.

Test [5] addresses recombinant LpxA enzyme (E. coli) (Escherichia coli, UniProt P0A722). The experiment in a line: LpxA in vitro substrate acylation assay with RapidFire MS analysis (E. coli). Type of test: biochemical. How it is done: Exemplary compounds from the above Examples were tested for ability to inhibit LpxA activity using an in vitro substrate acylation assay with RapidFire™ MS analysis. Assay procedures and results are described below.
Reactions were carried out in a final volume of 30 μL with 25 mM HEPES (pH 7.3), 150 mM NaCl, 2 mM DTT, 0.01% BSA, 5 μM UDP-GlcNac, recombinant LpxA enzyme (0.5 nM P. aeruginosa or 1.0 nM E. coli, both produced at Evotec), 0.5 μM acyl-transfer reagent (decanoyl P. aeruginosa acyl-carrier protein [PaACP-C10] or myristoyl E. coli acyl-carrier protein [EcACP-C1-4], both produced at Evotec), and 1% DMSO containing test compound. After 30 min incubation at room temperature, reactions were stopped by addition of 30 μL of 10% TCA in water.
(§1) Samples were centrifuged (4350 rpm, 4° C., 5 min), and then subjected to RapidFire™ MS analysis on an Agilent RapidFire 300 coupled to an Agilent 6460 triple-quadrupole mass spectrometer. Analytes were retained on a C4 (type A) cartridge using the following solvents and flow rates: • Pump 1—H2O with 5 mM NH4OAc at 2.0 mL/min, • Pump 2—MeOH/H2O (90/10) at 1.5 mL/min, • Pump 3—MeOH/H2O (90/10) at 0.5 mL/min, and • Pump 4—ACN (organic)/H2O (aqueous). Substrate and product of the reaction were detected in negative mode ESI-MS/MS by MRM (multiple reaction monitoring) of transitions 606.0/385.0 (UDP-GlcNAc substrate) and 776.2/385.0 (UDP-3-O—(R-3-hydroxydecanoyl)-GlcNAc product, for P. aeruginosa LpxA assay) or 832.2/385.0 (UDP-3-O—(R-3-hydroxymyristoyl)-GlcNAc product, for E. coli LpxA assay).
For IC50 determinations, peak areas of the substrate and product were compared to compute the proportion of product formed by the LpxA enzyme at each compound concentration.

Test [6] has as its target T2, recombinant LpxD enzyme (P. aeruginosa) (Pseudomonas aeruginosa, UniProt Q9HXY6).
T2 sequence (Q9HXY6 1-353): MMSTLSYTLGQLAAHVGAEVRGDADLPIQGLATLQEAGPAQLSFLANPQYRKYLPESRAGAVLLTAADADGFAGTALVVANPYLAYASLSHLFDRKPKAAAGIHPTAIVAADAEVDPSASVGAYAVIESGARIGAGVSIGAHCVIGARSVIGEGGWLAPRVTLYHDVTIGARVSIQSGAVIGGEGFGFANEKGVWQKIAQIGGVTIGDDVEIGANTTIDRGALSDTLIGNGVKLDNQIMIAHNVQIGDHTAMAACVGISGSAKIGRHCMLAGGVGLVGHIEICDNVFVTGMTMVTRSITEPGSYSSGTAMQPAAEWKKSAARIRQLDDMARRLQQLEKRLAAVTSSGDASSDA
The experiment in a line: LpxD in vitro substrate acylation assay with RapidFire MS analysis (P. aeruginosa). Type of test: biochemical. Particulars: P. aeruginosa enzyme 10 nM, EcACP-C10, 120 min. How it is done: Exemplary compounds from the above Examples were tested for ability to inhibit LpxD activity using an in vitro substrate acylation assay with RapidFire™ MS analysis. Assay procedures and results are described below.
Reactions were carried out in a final volume of 30 μL with 25 mM HEPES (pH 7.3), 150 mM NaCl, 2 mM DTT, 0.01% BSA, 5 μM UDP-3-O[R-3-Hydroxymyristoyl]-glucosamine (produced at Charles River according to literature procedures, and partially purified at Evotec), 10 nM recombinant LpxD enzyme (P. aeruginosa or E. coli, produced at Evotec), 1 μM decanoyl E. coli acyl-carrier protein (EcACP-C10, produced at Evotec), and 1% DMSO containing test compound. After 120 min incubation at room temperature, reactions were stopped by addition of 30 μL of 10% TCA in water.
as §1, with “790.3/385.0 (UDP-3-O[R-3-Hydroxymyristoyl]-glucosamine” for “606.0/385.0 (UDP-GlcNAc”, “960.4/385.0 (UDP-3-O—[R-3-Hydroxymyristoyl]-N—[R-3-hydroxydecanoyl]-glucosamine product).” for “776.2/385.0 (UDP-3-O—(R-3-hydroxydecanoyl)-GlcNAc product, for P. aeruginosa LpxA assay) or 832.2/385.0 (UDP-3-O—(R-3-hydroxymyristoyl)-GlcNAc product, for E. coli LpxA assay).”
For IC50 determinations, peak areas of the substrate and product were compared to compute the proportion of product formed by the LpxD enzyme at each compound concentration. The fractional activity was converted to percentage inhibition and plotted against compound concentration in Evotec's proprietary platform Aplus and fit using a four-parameter logistic using non-linear regression to yield the IC50 value.

The test system of test [7] is P. aeruginosa PAO1 ΔmexABoprM. As to the kind of experiment: Broth microdilution MIC, P. aeruginosa PAO1 ΔmexABoprM. The class given is cell-based. Particulars: Pseudomonas aeruginosa, PAO1, 18 h, read-out: PAO1 KO MIC.
Test [8] relates to P. aeruginosa LESB58. The experiment in a line: Broth microdilution MIC, P. aeruginosa LESB58. Type of test: cell-based. Particulars: Pseudomonas aeruginosa; P. aeruginosa LESB58 clinical isolate, colistin-resistant, 37° C., 18 h.

recombinant LpxA enzyme (E. coli), sequence (P0A722 whole entry): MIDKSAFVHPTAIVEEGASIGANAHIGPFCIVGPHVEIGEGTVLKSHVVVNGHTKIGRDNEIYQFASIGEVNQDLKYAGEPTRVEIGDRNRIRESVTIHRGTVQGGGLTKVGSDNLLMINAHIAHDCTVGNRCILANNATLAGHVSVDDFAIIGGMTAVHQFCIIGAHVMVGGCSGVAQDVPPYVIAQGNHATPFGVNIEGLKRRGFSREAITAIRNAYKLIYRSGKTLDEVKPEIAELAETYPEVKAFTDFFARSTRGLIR

As for `N#Cc1ccc(CN(Cc2nnc(N)o2)C(=O)CSc2cc(-c3c[nH]cn3)ccc2Cl)c(F)c1` [Compound No. 62, N-[(5-Amino-1,3,4-oxadiazol-2-yl)methyl]-2-[2-chloro-5-(1H-imidazol-4-yl)phenyl]sulfanyl-N-[(4-cyano-2-fluoro-phenyl)methyl]acetamide], the MIC in test [1] is greater than 64 mg/L; in test [2], 16 to 64 mg/L (≈ 32.1 to 129 µM); in test [3], 1 to 16 mg/L (≈ 2.01 to 32.1 µM). Further, the IC50 fell in the range of 0.1 to 1 µM in test [4] and 5 to 20 µM in test [5].
As for `N#Cc1ccc(CN(CC(=O)NC2CNC2)C(=O)CSc2ccccc2Cl)cc1` [compound 5], the MIC in test [1] was greater than 64 mg/L; in test [2], 16 to 64 mg/L (≈ 37.3 to 149 µM); in test [3] it was 16 to 64 mg/L (≈ 37.3 to 149 µM). Further, the IC50 in test [4] is 0.1 to 1 µM; in test [6] it was greater than 20 µM.
Take `CS(=O)(=O)Nc1ccc(CN(Cc2nnc(N)o2)C(=O)CSc2ccccc2Cl)cc1` [compound 46]: the MIC in test [1] was greater than 64 mg/L; in test [2], 16 to 64 mg/L (≈ 33.2 to 133 µM); in test [3] it was 1 to 16 mg/L (≈ 2.07 to 33.2 µM); in test [7], greater than 64 mg/L. Moreover, the IC50 is 0.02 to 0.1 µM in test [4] and greater than 20 µM in test [5].
Turning to `N#Cc1ccc(CN(CC(=O)N2CCOCC2)C(=O)CSc2ccccc2Cl)cc1` [Compound No. 2], the MIC is greater than 64 mg/L in test [1] and 16 to 64 mg/L (≈ 36 to 144 µM) in test [3]. The IC50 was greater than 1 µM in test [4], greater than 20 µM in test [6] and greater than 20 µM in test [5].
As for `Nc1nnc(CN(Cc2ccc(S(N)(=O)=O)cc2)C(=O)CSc2cc(F)cc(F)c2Cl)o1` [compound 59], the MIC in test [1] was greater than 64 mg/L; in test [8], 16 to 64 mg/L (≈ 31.7 to 127 µM); in test [3], less than 1 mg/L; in test [7], 1 to 16 mg/L (≈ 1.98 to 31.7 µM). Also, the IC50 in test [4] is less than 0.02 µM; in test [5], greater than 20 µM.
In the case of `N#Cc1ccc(CN(C(=O)CSc2ccccc2Cl)[C@@H](CO)c2nnc(N)o2)cn1` [Compound No. 8, 2-(2-Chlorophenyl)sulfanyl-N-[(6-cyano-3-pyridyl)methyl]-N-[(1S)-1-(5-amino-1,3,4-oxadiazol-2-yl)-2-hydroxy-ethyl]acetamide], the MIC in test [1] was greater than 64 mg/L; in test [3], less than 1 mg/L; in test [7], 1 to 16 mg/L (≈ 2.25 to 36 µM). Besides, the IC50 in test [4] is less than 0.02 µM; in test [5], greater than 20 µM.
For the compound `NC(=O)c1ccc(CN(Cc2nnc(N)o2)C(=O)CSc2ccccc2Cl)cc1` [compound 76], the minimum inhibitory concentration (MIC) was greater than 64 mg/L in test [1], 1 to 16 mg/L (≈ 2.32 to 37 µM) in test [3] and 16 to 64 mg/L (≈ 37 to 148 µM) in test [7]. For the same compound, the IC50 in test [4] is 0.1 to 1 µM; in test [5], greater than 20 µM.
As to `CN1CC(NC(=O)CN(Cc2ccc(C#N)cc2)C(=O)CSc2ccccc2Cl)C1` [Compound No. 6], the MIC in test [1] was greater than 64 mg/L; in test [3], 1 to 16 mg/L (≈ 2.26 to 36.1 µM). For the same compound, the figures for the IC50 in test [4] and in test [6] were greater than 1 µM and greater than 20 µM, respectively.
